Data published in patent US6365570B1, “Pharmaceutical and diagnostic use of Serum Amyloid P component” (priority 1999, dated 2002).
Entries after “also recorded” stand apart in the source; their conditions may differ.

How the values were obtained:
[1] = molecular target: binding of LPS to monocytes; assay: Inhibition of FITC-LPS binding to monocytes (flow cytometry); assay type: cell-based, human; details: for IC50: FITC-LPS 2.5 ng/ml, 30 ng/ml recombinant LBP, mononuclear cells of healthy volunteers, 30 minutes at 37° C., read-out: 50% inhibition concentration; for inhibition of binding of LPS to monocytes (in words): FITC-LPS binding to monocytes in vitro, FIG. 2 / FIG. 4
Description: 2.1 Materials and method LPS of Salmonella Re595 (ReLPS, supra) is labelled with FITC (Sigma; F7250) under conditions in which LPS is present as monomer, resulting in a FITC-LPS preparation with a ratio of 1 molecule FITC per molecule PLS. After extension desalting and dialysis against PBS, the stock solution of FITC-LPS is stored at −20° C. Mononuclear leukocytes (monocytes and lymphocytes) are isolated from heparin blood of healthy volunteers via a Ficol (Pharmacial) gradient in accordance with a standard method. After washing the cells are resuspended in isotonic HEPES buffer (with 1 mM CalCl2 and 2% BSA). Preparations with SAP are mixed with FITC-LPS and subsequently added to 3×10^5 mononuclear cells and 30 ng/ml recombinant LSP (obtained from Dr. Lichtenstein) in a total volume of 50 μl and a FITC-LPS concentration of 2.5 ng/ml. After an incubating period of 30 minutes at 37° C., the samples are stored on ice. Analysis of monocyte-associated FITC-LPS binding takes place with PAC Scan™ Flow cytometer. Forward and Sideward Scatter parameters are used to identify the monocyte population. With LysisII™ software (Beckton & Dickinson) the average fluorescence value of 5000 monocytes is calculated. See also Weersing A. J. L. et al., J. Immunol. 145, 318-324 (1990)).
3.1 Materials and method The test was performed in the same manner as described in example 2. However, SAP fragments (peptides) were used instead of SAP. The amino acid composition of the tested peptides is shown in table 2, as well as the concentration at which 50% inhibition occurs.

[2] = test system: LPS priming of neutrophils; assay: Inhibition of LPS priming of neutrophils (fMLP/luminol luminescence); assay type: cell-based, human; details: 1 ng/ml ReLPS, 30 ng/ml r-LBP, 30 minutes at 37° C., fMLP stimulus, FIG. 3
Description: 4.1 Materials and method Neutrophils are isolated from heparin blood of healthy volunteers via a Histopaque-Picoll gradient in accordance with a standard method (Van Amerafoort, E. S. & J. A. G. van Strijp, Cytometry 17, 294-301 (1994). The remaining erythrocytes in the neutrophil fraction are lysed with sterile water (for 30 seconds) and, after reinstatement of the isotonicity, the fraction is washed. The cells are finally inserted (suspended) in HGSS+2% Human Serum Albumin (HSA). Cells (1×10^4) are incubated with 1 ng/ml ReLPS, 30 ng/ml recombinant LPS-binding protein (r-LPS) and a sample SAP in a total volume of 100 μl for 30 minutes at 37° C. The samples are subsequently placed in a luminometer (Berthold; Autolumat LB953), whereafter via automatic injection luminol (180 μM) and 1 μM fMLP (formylmethyonyl-leucyl-phenylalanine) are added as stimulus to each tube. The luminescence response is measured continuously for 15 minutes and the results expressed as total luminescence response (area under the graph). See also Weersink et al., Immunology 83, 617-623 (1994).

LPS of Salmonella Re595 = assay: Binding to LPS-Beads, SDS-PAGE analysis; details: FIG. 1A and 1B, serum pre-incubated with free ReLPS
Description: 1.1 Materials and method A 1 mg/ml solution of LPS of Salmonella Re595 (Sigma; L9764) in carbonate buffer (0.1 M, pH 9.5) is incubated for 24 hours with 5×10^7 DynaBeads™ (M450, Dynal A. S., Oslo, Norway) activated with Tosyl. The beads loaded with LPS are washed 3x and stored in HBSS+0.1% Na-azide (5×10^7 b/ml). A 10% dilution (1 to 10 dilution) of serum of healthy volunteers is mixed with 5×10^6 LPS-Beads for 30 minutes at 22° C. The serum has optionally been incubated before hand with different concentrations of free LPS. The beads are washed 3x with HBSS (Gibco BRL, Gaithersburg, Md., US) and subsequently resuspended in 25 μl SDS-PAGE sample buffer (with 2% SDS and 2.5% DTT). After boiling for 3 minutes at 100° C. the sample is analyzed on a 12.5% SDS-PAGE (Mini-ProteanII; Bio-Rad). The proteins present are stained with Coomassie Blue. A sample with Marker proteins of known sizes (Bio-Rad) serves as reference. For identification the proteins are transferred after SDS-PAGE to nitrocellulose paper by means of a Mini Trans-Blotter™. The proteins are stained with Coomassie Blue, and the protein around 30 kDa is […] and dissolved in buffer. The sequence of this sample is determined. SAP is isolated from normal human serum by making use of the Ca-dependent binding to Sepharose. […]

SAP fragment, amino acids 27-34: Glu Lys Pro Leu Gln Asn Phe Thr, SEQ ID NO 8 (EKPLQNFT; Fragment of the Serum Amyloid P component, peptide 27-34) [PEP 27-34]
IC50 [1]: > 106 µM

SAP fragment, amino acids 27-39: Glu Lys Pro Leu Gln Asn Phe Thr Leu Cys Phe Arg Ala, SEQ ID NO 1 (EKPLQNFTLCFRA; Fragment of the Serum Amyloid P component, peptides 27-39; listed as Homo sapiens) [PEP 27-39]
IC50 [1]: 0.1 µM
inhibition of binding of LPS to monocytes (in words) [1]: very good activity

SAP fragment, amino acids 28-35: Lys Pro Leu Gln Asn Phe Thr Leu, SEQ ID NO 7 (KPLQNFTL; Fragment of the Serum Amyloid P component, peptide 28-35) [PEP 28-35]
IC50 [1]: > 100 µM

SAP fragment, amino acids 29-36: Pro Leu Gln Asn Phe Thr Leu Cys, SEQ ID NO 5 (PLQNFTLC; Fragment of the Serum Amyloid P component, peptide 29-36) [PEP 29-36]
IC50 [1]: 6.5 µM
inhibition of binding of LPS to monocytes (in words) [1]: acceptable activity

SAP fragment, amino acids 30-37: Leu Gln Asn Phe Thr Leu Cys Phe, SEQ ID NO 4 (LQNFTLCF; Fragment of the Serum Amyloid P component, peptide 30-37) [PEP 30-37]
IC50 [1]: 4.5 µM
inhibition of binding of LPS to monocytes (in words) [1]: acceptable activity

SAP fragment, amino acids 32-39: Asn Phe Thr Leu Cys Phe Arg Ala, SEQ ID NO 3 (NFTLCFRA; Fragment of the Serum Amyloid P component, peptides 32-39) [PEP 32-39]
IC50 [1]: 2 µM
inhibition of binding of LPS to monocytes (in words) [1]: acceptable activity

SAP fragment, amino acids 33-38: Phe Thr Leu Cys Phe Arg, SEQ ID NO 2 (FTLCFR; Fragment of the Serum Amyloid P component, peptides 33-38) [PEP 33-38]
inhibition of binding of LPS to monocytes (in words) [1]: acceptable activity

Serum Amyloid P component [SAP]
IC50 [1]: 0.05 µM
inhibition of binding of LPS to monocytes (in words) [1]: concentration-dependent inhibition
activation (priming) of neutrophils by LPS [2]: greatly reduced
binding to LPS-Beads / free LPS (LPS of Salmonella Re595): capable of binding with free LPS; also recorded: binds to the LPS-Beads
